Data taken from patent US11339157B1, “4H-pyrrolo[3,2-c]pyridin-4-one derivatives” (Bayer Aktiengesellschaft, priority 2017, dated 2022).
Values joined by “and” are separate entries in the source; they are usually repeats but may differ in a detail not shown here. Equal entries are not always repeated. Where two headings read alike, the source gives them in different places.

What was measured:
Bub1 = Bub1 (Homo sapiens (Human), UniProt O43683); assay: Bub1 kinase assay (TR-FRET, 10 μM ATP); format: biochemical; settings: mean, read-out: Bub1 kinase assay IC50 [mol/l] (mean)
Source text: Bub1-inhibitory activities of compounds described in the present invention were quantified using a time-resolved fluorescence energy transfer (TR-FRET) kinase assay which measures phosphorylation of the synthetic peptide Biotin-Ahx-[…]—SEQ ID NO: 5 (C-terminus in amide form), purchased from e.g. Biosyntan (Berlin, Germany) by the (recombinant) catalytic domain of human Bub1 (amino acids 704-1085), expressed in Hi5 insect cells with an N-terminal His6-tag (SEQ ID NO: 9) and purified by affinity-(Ni-NTA) and size exclusion chromatography.
In a typical assay 11 different concentrations of each compound (0.1 nM, 0.33 nM, 1.1 nM, 3.8 nM, 13 nM, 44 nM, 0.15 μM, 0.51 μM, 1.7 μM, 5.9 μM and 20 μM) were tested in duplicate within the same microtiter plate. To this end, 100-fold concentrated compound solutions (in DMSO) were previously prepared by serial dilution (1:3.4) of 2 mM stocks in a clear low volume 384-well source microtiter plate (Greiner Bio-One, Frickenhausen, Germany), from which 50 nl of compounds were transferred into a black low volume test microtiter plate from the same supplier. […] The resulting mixture (5 μl final volume) was incubated at 22° C. during 60 min., and the reaction was stopped by the addition of 5 μl of an aqueous EDTA-solution (50 mM EDTA, in 100 mM HEPES pH 7.5 and 0.2% (w/v) bovine serum albumin) which also contained the TR-FRET detection reagents (0.2 μM streptavidin-XL665 [Cisbio Bioassays, Codolet, France] and 1 nM anti-phosho-Serine antibody [Merck Millipore, cat. #35-002] and 0.4 nM LANCE EU-W1024 labeled anti-mouse IgG antibody [Perkin-Elmer, product no. AD0077, alternatively a Terbium-cryptate-labeled anti-mouse IgG antibody from Cisbio Bioassays can be used]). The stopped reaction mixture was further incubated 1 h at 22° C. in order to allow the formation of complexes between peptides and detection reagents. Subsequently, the amount of product was evaluated by measurement of the resonance energy transfer from the Eu-chelate-antibody complex recognizing the Phosphoserine residue to the streptavidin-XL665 bound to the biotin moiety of the peptide. To this end, the fluorescence emissions at 620 nm and 665 nm after excitation at 330-350 nm were measured in a TR-FRET plate reader, e.g. a Rubystar or Pherastar (both from BMG Labtechnologies, Offenburg, Germany) or a Viewlux (Perkin-Elmer) and the ratio of the emissions (665 nm/[…]) was taken as indicator for the amount of phosphorylated substrate. The data were normalised using two sets of control wells for high-(=enzyme reaction without inhibitor=0%=Minimum inhibition) and low-(=all assay components without enzyme=100%=Maximum inhibition) Bub1 activity. IC50 values were calculated by fitting the normalized inhibition data to a 4-parameter logistic equation (Minimum, Maximum, IC50, Hill; Y=Max+(Min−Max)/(1+(X/IC50)Hill)).

Ba/F3-EGFR-WT cells = assay: Proliferation assay in BA/F3 (wild type) cells (Cell Titer-Glo); format: cell-based; settings: Mus musculus
Method in brief: (§1)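 Ba/F3 cells stably expressing retrovirally transduced EGFR-WT or EGFR-insSVD; WT cells plated with 10 ng/mL EGF, insSVD cells without EGF. Compound exposure 48 h at 37° C; viability read by CellTiter-Glo luminescence.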

Ba/F3-EGFR-insSVD cells = assay: Proliferation assay in BA/F3 (ins SVD) cells (Cell Titer-Glo); format: cell-based
Method in brief: as §1

[1] = target: EGFR ins ASV (insertion of ASV between V769 and D770); assay: Exon 20-Mutant-EGFR(V769_D770insASV) kinase assay (TR-FRET); format: biochemical, human; settings: 2 mM ATP
Procedure: Exon 20-Mutant-EGFR(V769_D770insASV) Kinase Assay
Inhibitory activity of compounds of the present invention against an Epidermal Growth Factor Receptor (EGFR) with an insertion of the amino acids sequence ASV between V769 and D770 was quantified employing the TR-FRET based kinase activity assay as described in the following paragraphs.
For the assay 50 nl of a 100-fold concentrated solution of the test compound in DMSO was pipetted into either a black low volume 384well microtiter plate or a black 1536 well microtiter plate (both Greiner Bio-One, Frickenhausen, Germany), 2 μl of a solution of EGFR in aqueous assay buffer [50 mM Hepes pH 7.0, 10 mM MgCl2, 1 mM dithiothreitol, 0.5 mM EGTA, 0.3 mM activated sodium ortho-vanadate, 0.005% (w/v) bovine serum albumin, 0.005% (v/v) Tween-20] were added and the mixture was incubated for 15 min at 22° C. to allow pre binding of the test compounds to the enzyme before the start of the kinase reaction. […] The concentration of EGFR was adjusted depending of the activity of the enzyme lot and was chosen appropriate to have the assay in the linear range, typical concentration was 2.5 pg/μl. The reaction was stopped by the addition of 3 μl of a solution of HTRF detection reagents (83.3 nM streptavidine-XL665 [Cisbio Bioassays, Codolet, France] and 1.67 nM PT66-Tb-Cryptate, an terbium-cryptate labelled anti-phospho-tyrosine antibody from Cisbio Bioassays [instead of the PT66 Tb cryptate PT66 Eu Chelate from Perkin Elmer can also be used]) in an aqueous EDTA-solution (133.3 mM EDTA, 0.2% (w/v) bovine serum albumin in 50 mM HEPES pH 7.5).
The resulting mixture was incubated 1 h at 22° C. to allow the binding of the biotinylated phosphorylated peptide to the streptavidine-XL665 and the PT66-Tb-Cryptate. Subsequently the amount of phosphorylated substrate was evaluated by measurement of the resonance energy transfer from the PT66-Tb-Cryptate to the streptavidine-XL665.

[2] = target: EGFR ins SVD (insertion of SVD between D770 and N771) (Homo sapiens, UniProt P00533, INS767SVD); assay: Exon 20-Mutant-EGFR(D770_N771insSVD) kinase assay (TR-FRET); format: biochemical
[3] = BaF3, 48 h, Table 10, plated with 10 ng/mL EGF
[4] = Mus musculus, BaF3, 48 h, Table 10, plated without EGF
[5] = 2 mM ATP, mean, read-out: EGFR ins SVD IC50 [mol/l] (mean)
[6] = Table 9, read-out: mutEGFR (D770_N771insSVD) kinase assay IC50
[7] = BaF3, Table 10, plated with 10 ng/mL EGF, 48 h
[8] = Mus musculus, BaF3, Table 10, plated without EGF, 48 h

Sequence of EGFR ins SVD (insertion of SVD between D770 and N771) (P00533 with tags, fused parts or gaps INS767SVD limits assumed): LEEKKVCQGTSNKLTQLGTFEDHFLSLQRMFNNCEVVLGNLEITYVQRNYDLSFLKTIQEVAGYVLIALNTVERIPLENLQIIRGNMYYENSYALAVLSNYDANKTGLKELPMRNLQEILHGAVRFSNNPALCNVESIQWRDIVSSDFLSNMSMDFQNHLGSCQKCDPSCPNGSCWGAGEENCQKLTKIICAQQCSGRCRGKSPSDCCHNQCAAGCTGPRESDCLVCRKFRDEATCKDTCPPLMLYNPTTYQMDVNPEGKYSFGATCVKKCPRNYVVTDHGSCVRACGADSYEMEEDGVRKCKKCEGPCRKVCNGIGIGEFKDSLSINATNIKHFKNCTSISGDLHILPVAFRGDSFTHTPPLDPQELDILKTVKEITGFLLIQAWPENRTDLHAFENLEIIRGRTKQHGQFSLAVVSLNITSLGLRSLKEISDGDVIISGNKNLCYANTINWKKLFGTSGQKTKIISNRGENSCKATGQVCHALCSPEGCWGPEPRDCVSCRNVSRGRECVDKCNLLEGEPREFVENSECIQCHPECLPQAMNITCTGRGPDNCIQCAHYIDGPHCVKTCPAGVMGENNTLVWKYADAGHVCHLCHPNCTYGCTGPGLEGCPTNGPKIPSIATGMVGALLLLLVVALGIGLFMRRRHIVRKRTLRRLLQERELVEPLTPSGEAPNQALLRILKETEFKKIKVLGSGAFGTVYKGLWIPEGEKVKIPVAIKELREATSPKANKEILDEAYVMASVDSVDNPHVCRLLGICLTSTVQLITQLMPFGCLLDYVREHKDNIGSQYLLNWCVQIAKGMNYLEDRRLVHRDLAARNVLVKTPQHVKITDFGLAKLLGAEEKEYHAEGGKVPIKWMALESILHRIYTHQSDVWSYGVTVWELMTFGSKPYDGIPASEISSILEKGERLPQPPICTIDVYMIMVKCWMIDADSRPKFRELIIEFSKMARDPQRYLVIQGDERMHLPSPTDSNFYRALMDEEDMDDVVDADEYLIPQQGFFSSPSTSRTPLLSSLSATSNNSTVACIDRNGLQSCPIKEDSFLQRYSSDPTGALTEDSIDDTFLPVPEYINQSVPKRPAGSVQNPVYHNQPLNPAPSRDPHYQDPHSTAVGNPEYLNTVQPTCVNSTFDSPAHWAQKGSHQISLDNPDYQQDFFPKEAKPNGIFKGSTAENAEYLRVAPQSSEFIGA
Sequence of Bub1 (O43683 704-1085): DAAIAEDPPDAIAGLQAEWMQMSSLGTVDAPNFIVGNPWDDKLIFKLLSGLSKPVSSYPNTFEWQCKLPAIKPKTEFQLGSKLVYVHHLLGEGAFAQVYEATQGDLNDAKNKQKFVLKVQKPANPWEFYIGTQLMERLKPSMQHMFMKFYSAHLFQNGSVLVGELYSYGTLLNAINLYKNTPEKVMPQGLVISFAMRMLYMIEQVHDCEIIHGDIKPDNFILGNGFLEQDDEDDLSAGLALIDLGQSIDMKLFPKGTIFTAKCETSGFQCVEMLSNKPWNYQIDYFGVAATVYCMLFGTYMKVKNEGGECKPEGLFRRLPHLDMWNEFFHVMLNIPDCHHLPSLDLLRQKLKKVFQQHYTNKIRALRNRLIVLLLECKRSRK

| SMILES | IC50 (Bub1) [nM] | IC50 (Ba/F3-EGFR-WT cells; [3]) [nM] | IC50 (Ba/F3-EGFR-insSVD cells; [4]) [nM] | EGFR ins ASV IC50 [mol] (mean) [1] | IC50 [2, 5] [nM] | IC50 [2, 6] | IC50 (Ba/F3-EGFR-WT cells; [7]) [nM] | IC50 (Ba/F3-EGFR-insSVD cells; [8]) [nM] | IC50 (Ba/F3-EGFR-insSVD cells; Table 10, plated without EGF, 48 h) |
| --- | --- | --- | --- | --- | --- | --- | --- | --- | --- |
| COCCOc1cnccc1-c1[nH]c2c(c1Nc1cc(F)cc(F)c1)C(=O)NCC2 [Example 9, 3-[(3,5-difluorophenyl)amino]-2-[3-(2-methoxyethoxy)pyridin-4-yl]-1,5,6,7-tetrahydro-4H-pyrrolo[3,2-c]pyridin-4-one] | 27.2 | 376 | 121 | 6.15e-09 | < 0.072 | 0.36 nM and 0.388 nM and 0.0776 nM and < 0.0725 nM and 0.1 nM and 0.0962 nM and 0.196 nM and 0.206 nM |  |  |  |
| COCCOc1cnccc1-c1[nH]c2c(c1Nc1ccccc1OC)C(=O)NCC2 [Example 13, 2-[3-(2-methoxyethoxy)pyridin-4-yl]-3-[(2-methoxyphenyl)amino]-1,5,6,7-tetrahydro-4H-pyrrolo[3,2-c]pyridin-4-one] | 350 | 4010 | 811 | 3.89e-08 | 4.41 | 4.41 nM |  |  |  |
| CC(C)(COc1cnccc1-c1[nH]c2c(c1Nc1cccc(F)c1)C(=O)NCC2)N1CCOCC1 [Example 7, 3-[(3-fluorophenyl)amino]-2-{3-[2-methyl-2-(morpholin-4-yl)propoxy]pyridin-4-yl}-1,5,6,7-tetrahydro-4H-pyrrolo[3,2-c]pyridin-4-one] | 397 |  |  |  | 0.718 | 1.13 nM | 2700 | 462 |  |
| COc1c(Nc2c(-c3ccncc3OCC(C)(C)OC)[nH]c3c2C(=O)NCC3)ccc(F)c1F [Example 29, 3-[(3,4-difluoro-2-methoxyphenyl)amino]-2-[3-(2-methoxy-2-methylpropoxy)pyridin-4-yl]-1,5,6,7-tetrahydro-4H-pyrrolo[3,2-c]pyridin-4-one] | 201 | 2360 | 229 |  |  |  |  |  |  |
| COCCOc1cnccc1-c1[nH]c2c(c1Nc1cccc(F)c1Br)C(=O)NCC2 [Example 12, 3-[(2-bromo-3-fluorophenyl)amino]-2-[3-(2-methoxyethoxy)pyridin-4-yl]-1,5,6,7-tetrahydro-4H-pyrrolo[3,2-c]pyridin-4-one] |  |  |  | 2.18e-10 | 0.0857 | 0.0857 nM |  |  |  |
| COC(C)(C)COc1cnccc1-c1[nH]c2c(c1Nc1cccc(F)c1O)C(=O)NCC2 [Example 24, 3-[(3-fluoro-2-hydroxyphenyl)amino]-2-[3-(2-methoxy-2-methylpropoxy)pyridin-4-yl]-1,5,6,7-tetrahydro-4H-pyrrolo[3,2-c]pyridin-4-one] |  |  |  | 6.34e-10 | 0.541 | 0.541 nM |  |  |  |
| COC(C)(C)COc1cnccc1-c1[nH]c2c(c1Nc1cc(F)cc(F)c1)C(=O)NCC2 [Example 10, 3-[(3,5-difluorophenyl)amino]-2-[3-(2-methoxy-2-methylpropoxy)pyridin-4-yl]-1,5,6,7-tetrahydro-4H-pyrrolo[3,2-c]pyridin-4-one] | 12.4 | 352 | 56.9 |  | < 0.072 | < 0.0725 nM (4×) and 0.133 nM |  |  |  |
| CN(C)CCOc1cnccc1-c1[nH]c2c(c1Nc1cccc(F)c1)C(=O)NCC2 [Example 5, 2-{3-[2-(dimethylamino)ethoxy]pyridin-4-yl}-3-[(3-fluorophenyl)amino]-1,5,6,7-tetrahydro-4H-pyrrolo[3,2-c]pyridin-4-one] | 32.4 |  | 567 | 4.31e-09 | 1.56 | 1.56 nM |  |  |  |
| CN1CCC[C@H]1COc1cnccc1-c1[nH]c2c(c1Nc1cccc(F)c1)C(=O)NCC2 [Example 8, 3-[(3-fluorophenyl)amino]-2-(3-{[(2S)-1-methylpyrrolidin-2-yl]methoxy}pyridin-4-yl)-1,5,6,7-tetrahydro-4H-pyrrolo[3,2-c]pyridin-4-one] | 65.8 |  |  |  | 0.31 | 0.324 nM | 623 | 69.5 |  |
| COCCOc1cnccc1-c1[nH]c2c(c1Nc1cccc(F)c1OC)C(=O)NCC2 [Example 16, 3-[(3-fluoro-2-methoxyphenyl)amino]-2-[3-(2-methoxyethoxy)pyridin-4-yl]-1,5,6,7-tetrahydro-4H-pyrrolo[3,2-c]pyridin-4-one] | 145 | 454 | 24.1 |  |  |  |  |  |  |
| COCCOc1cnccc1-c1[nH]c2c(c1Nc1ccccc1OC(F)(F)F)C(=O)NCC2 [Example 14, 2-[3-(2-methoxyethoxy)pyridin-4-yl]-3-{[2-(trifluoromethoxy)phenyl]amino}-1,5,6,7-tetrahydro-4H-pyrrolo[3,2-c]pyridin-4-one] | 704 | 2530 | 1040 |  |  |  |  |  |  |
| CC(C)(C)CCOc1cnccc1-c1[nH]c2c(c1Nc1cccc(F)c1)C(=O)NCC2 [Example 2, 2-[3-(3,3-dimethylbutoxy)pyridin-4-yl]-3-[(3-fluorophenyl)amino]-1,5,6,7-tetrahydro-4H-pyrrolo[3,2-c]pyridin-4-one] | 44.1 | 1870 | 6.8 |  |  |  |  |  | 7.49 nM and 8.81 nM and 7.48 nM and < 4.78 nM |
| CCOc1c(F)cccc1Nc1c(-c2ccncc2OCCOC)[nH]c2c1C(=O)NCC2 [Example 25, 3-[(2-ethoxy-3-fluorophenyl)amino]-2-[3-(2-methoxyethoxy)pyridin-4-yl]-1,5,6,7-tetrahydro-4H-pyrrolo[3,2-c]pyridin-4-one] | 228 | 2280 |  |  |  |  |  |  |  |
| COCCOc1cnccc1-c1[nH]c2c(c1Nc1cccc(F)c1OC(F)F)C(=O)NCC2 [Example 18, 3-{[2-(difluoromethoxy)-3-fluorophenyl]amino}-2-[3-(2-methoxyethoxy)pyridin-4-yl]-1,5,6,7-tetrahydro-4H-pyrrolo[3,2-c]pyridin-4-one] | 375 |  |  |  |  |  |  |  |  |
| COc1c(Cl)cccc1Nc1c(-c2ccncc2OC[C@@H]2CCCN2)[nH]c2c1C(=O)NCC2 [Example 80, 3-(3-chloro-2-methoxyanilino)-2-(3-{[(2S)-pyrrolidin-2-yl]methoxy}pyridin-4-yl)-1,5,6,7-tetrahydro-4H-pyrrolo[3,2-c]pyridin-4-one] |  | 1460 | 206 |  |  | 0.503 nM |  |  |  |
| COCCOc1cnccc1-c1[nH]c2c(c1Nc1cccc(F)c1CC(F)F)C(=O)NCC2 [Example 22, 3-{[2-(2,2-difluoroethyl)-3-fluorophenyl]amino}-2-[3-(2-methoxyethoxy)pyridin-4-yl]-1,5,6,7-tetrahydro-4H-pyrrolo[3,2-c]pyridin-4-one] | 111 | 1560 | 116 |  |  |  |  |  |  |
| O=C1NCCc2[nH]c(-c3ccncc3OCCN3CCOCC3)c(Nc3cccc(Cl)c3OC(F)F)c21 [Example 81, 3-[3-chloro-2-(difluoromethoxy)anilino]-2-{3-[2-(morpholin-4-yl)ethoxy]pyridin-4-yl}-1,5,6,7-tetrahydro-4H-pyrrolo[3,2-c]pyridin-4-one] |  |  |  |  |  | 0.441 nM | 4190 | 405 |  |
| COCCOc1cnccc1-c1[nH]c2c(c1Nc1ccccc1)C(=O)NCC2 [Example 1, 2-[3-(2-methoxyethoxy)pyridin-4-yl]-3-(phenylamino)-1,5,6,7-tetrahydro-4H-pyrrolo[3,2-c]pyridin-4-one] | 14.5 |  |  |  |  |  |  |  |  |
